Laboratory results from paper PMC5002989 (Bioorganic & medicinal chemistry letters, 2016).
Like-named read-outs stand apart in the source and are kept apart here.

What was measured:
VMAT2 = VMAT2 (Rattus norvegicus, UniProt Q01827); experiment: [3H]DA uptake at VMAT2 in rat striatal vesicle preparations; assay type: biochemical
hERG channel = hERG channel (Homo sapiens, UniProt Q12809); experiment: biochemical
[1] = Experimental water solubility, thermodynamic solubility method; assay type: physicochemical; conditions: for solubility: water, Experimentally determined water solubility of the hydrochloride salt

Chain of VMAT2 (Q01827 whole entry): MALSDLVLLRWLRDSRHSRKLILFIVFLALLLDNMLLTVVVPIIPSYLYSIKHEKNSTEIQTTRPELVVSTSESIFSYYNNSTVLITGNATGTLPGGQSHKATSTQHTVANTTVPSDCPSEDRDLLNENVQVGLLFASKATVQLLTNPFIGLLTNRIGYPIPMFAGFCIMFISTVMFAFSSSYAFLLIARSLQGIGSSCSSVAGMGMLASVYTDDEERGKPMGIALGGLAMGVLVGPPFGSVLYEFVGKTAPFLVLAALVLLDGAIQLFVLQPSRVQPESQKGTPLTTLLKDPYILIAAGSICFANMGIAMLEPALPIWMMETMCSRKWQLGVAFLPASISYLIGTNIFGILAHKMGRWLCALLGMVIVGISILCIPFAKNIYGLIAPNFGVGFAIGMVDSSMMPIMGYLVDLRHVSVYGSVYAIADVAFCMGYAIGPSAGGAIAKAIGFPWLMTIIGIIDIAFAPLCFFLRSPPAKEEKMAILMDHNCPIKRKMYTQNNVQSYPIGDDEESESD
Chain of hERG channel (Q12809 whole entry): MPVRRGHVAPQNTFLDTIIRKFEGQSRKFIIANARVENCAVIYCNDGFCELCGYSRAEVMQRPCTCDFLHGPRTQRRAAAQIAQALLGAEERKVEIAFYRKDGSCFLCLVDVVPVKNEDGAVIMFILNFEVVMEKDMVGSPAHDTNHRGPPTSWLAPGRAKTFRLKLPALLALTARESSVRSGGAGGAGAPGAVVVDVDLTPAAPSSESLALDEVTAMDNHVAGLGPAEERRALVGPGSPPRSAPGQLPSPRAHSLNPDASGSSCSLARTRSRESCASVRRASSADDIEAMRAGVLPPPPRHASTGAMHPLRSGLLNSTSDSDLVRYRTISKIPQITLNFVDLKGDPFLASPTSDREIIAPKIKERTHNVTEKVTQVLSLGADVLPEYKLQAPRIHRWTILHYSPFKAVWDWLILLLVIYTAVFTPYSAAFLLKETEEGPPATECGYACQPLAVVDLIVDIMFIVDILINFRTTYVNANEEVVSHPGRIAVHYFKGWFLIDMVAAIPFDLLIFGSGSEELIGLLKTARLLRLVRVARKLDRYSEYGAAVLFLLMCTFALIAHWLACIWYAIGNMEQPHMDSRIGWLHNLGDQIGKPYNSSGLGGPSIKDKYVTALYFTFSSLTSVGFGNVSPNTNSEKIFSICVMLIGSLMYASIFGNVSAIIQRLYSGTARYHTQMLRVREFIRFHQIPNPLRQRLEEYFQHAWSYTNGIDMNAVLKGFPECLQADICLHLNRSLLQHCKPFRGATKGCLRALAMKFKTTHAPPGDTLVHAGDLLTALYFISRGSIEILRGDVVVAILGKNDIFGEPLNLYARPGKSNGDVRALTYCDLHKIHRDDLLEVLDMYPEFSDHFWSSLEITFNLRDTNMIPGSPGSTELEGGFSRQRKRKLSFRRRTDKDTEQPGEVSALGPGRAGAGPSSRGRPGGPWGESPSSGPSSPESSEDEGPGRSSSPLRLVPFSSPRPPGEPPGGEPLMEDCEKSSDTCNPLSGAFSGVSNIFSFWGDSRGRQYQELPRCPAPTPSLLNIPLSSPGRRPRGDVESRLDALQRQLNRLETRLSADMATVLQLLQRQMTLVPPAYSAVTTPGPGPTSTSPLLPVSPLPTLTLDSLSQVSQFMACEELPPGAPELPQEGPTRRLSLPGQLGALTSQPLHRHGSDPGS

Question: Which “[3H]DA uptake Ki in comparison to lobelane” value (VMAT2) does the source give for Cl.Cl.Fc1ccc(CCN2CCN(CCc3ccc(F)cc3)CC2)cc1 [Compound 6f] here?
Answer: not different from lobelane

Question: With CN1[C@@H](CCc2ccccc2)CCC[C@H]1CCc1ccccc1 [Lobelane (2), lobelane] as the compound, how does the Ki (hERG channel) read?
Answer: 238 ± 38.9 nM

Question: Which results are given for COc1ccccc1CCN1CCN(CCc2ccccc2OC)CC1.Cl.Cl [Compound 6b]?
Answer: Experimentally determined water solubility of the hydrochloride salt ([1]; listed as C00014): 25.0 mg/mL; solubility [1]: 33.3 mg/mL

Question: For Cl.Cl.Clc1ccccc1CCN1CCN(CCc2ccccc2Cl)CC1 [Compound 6e], which “Experimentally determined water solubility of the hydrochloride salt” value (“Experimentally” below) ([1]; listed as C00020) is on record?
Answer: 13.5 mg/mL

Question: And the solubility [1]?
Answer: 25 mg/mL

Question: For COc1ccccc1CCN1CCN(CCc2ccccc2)CC1.Cl.Cl [Compound 9a], which “Experimentally” value [1] is on record?
Answer: 13.5 mg/mL

Question: And the “Experimentally” value ([1]; listed as C00004)?
Answer: 33.3 mg/mL
